The test system of data set [1] is virus HIV-1 (souche HTLV-IIIB). As to the kind of experiment: viral antigen assay in HIV-infected human peripheral blood lymphocytes. The data set is classed as cell-based. The following applies: day 14 of culture. From the text: Les lymphocytes ont été extraits d'un concentré plaquettaire par séparation sur gradient de Ficoll et élimination des adhérentes. Après 3 jours de stimulation par la phytohémaglutinine, ils ont été transférés dans un milieu additionné d'interleukine-2 (IL-2) est infectés par le virus HIV-1 (souche HTLV-IIIB). L'AZT et son dérivé 5′ hémisuccinate à différentes concentrations ont été rajoutés aux cellules au moment de l'infection.
Trois jours après l'infection, le milieu a été remplacé par du milieu frais additionné d'IL-2, contenant les produits aux concentrations désirées pour la moitié des cellules, et ne contenant plus de produit pour l'autre moitié. Ensuite, le milieu des cellules a été remplacé à moitié par du milieu frais additionné d'IL-2, contenant ou non les produits aux concentrations désirées, tous les 3 à 4 jours.
La multiplication du virus a été suivie par dosage des antigènes viraux dans les surnageants de culture (Innotest HIV-Organon Teknika).

Data set [2] relates to lignées cellulaires continues. As to the kind of experiment: in vitro toxicity on continuous cell lines (MTT method). The data set is classed as cell-based. The following applies: all cell lines tested, comparison with AZT; tableau 8 is an image. From the text:
Dans le but d'évaluer la toxicité du dérivé 5′hémisuccinyl de l'AZT, des expériences ont été réalisées sur différentes lignées cellulaires continues.
L'AZT et son dérivé 5′hémisuccinyl à différentes concentrations ont été mis en présence de cellules en phase de croissance. Le nombre de cellules vivantes a été déterminé par la méthode au MTT après 1, 2, 3 et 4 jours de culture. La cytotoxicité a été mesurée et est exprimée sous forme de CD₅₀.
Les lignées cellulaires continues utilisées sont les suivantes : - Cellules en suspension : [formula] - Cellules adhérentes : Hep-G2 : hépatocarcinome humain Hep-2 : carcinome épidermoïde humain
Les résultats sont repris au tableau 8.
(In general: Formazan colour is commonly taken as a measure of viable cells.)

The nature of data set [3]: in vivo toxicity, intraperitoneal, 5-day-old NMRI mice. On the set-up: species or system souriceaux NMRI. Particulars: AZT-5′hémisuccinyl, i.p. On the procedure:
L'AZT et son dérivé 5′hémisuccinyl ont été administrés par voie infra-péritonéale à de souriceaux NMRI âgés de 5 jours (100 µl/g de poids corporel). Les animaux ont été contrôlés tous les jours selon 2 critères : survie et poids pendant 25 jours.
Les résultats sont repris au tableau 9. Les souriceaux traités n'ont pas montre de différence significative dans la prise de poids par rapport aux contrôles. Tableau 9

As for `Cc1cn([C@H]2C[C@H](N=[N+]=[N-])[C@@H](COC(=O)CCC(=O)O)O2)c(=O)[nH]c1=O` [AZT 5′hémisuccinyl, 5′-hémisuccinyl-3′-azido-3′-déoxythymidine], the ED₅₀ in data set [1] (durée d'administration 3 jours) is recorded as 0.078 µM; in data set [1] (durée d'administration 14 jours), 0.057 µM. Further, in data set [2], the “toxicité sur lignées cellulaires continues (in words)” value was “moins toxique que l'AZT”. Moreover, the entries for the “Survivants au jour 25” value in data set [3] (dose 1 g/kg poids corporel (équivalent AZT 0.73)), in data set [3] (dose 2 g/kg poids corporel (équivalent AZT 1.46)) and in data set [3] (dose 3 g/kg poids corporel (équivalent AZT 2.2)) were 100%, 100% and 50%, respectively. In addition, the mortalité/jour entry in data set [3] (dose 3 g/kg poids corporel (équivalent AZT 2.2), au jour 1) is “(50 % au jour 1)”.

The record behind these values is patent EP0357495A2, “3'Azido-3'-deoxythymidine (AZT) derivatives active against the AIDS virus” (IRE-CELLTARG S.A., priority 1988, dated 1990).
